Assay results published in patent US20190008147A1, “COMPOSITION CONTAINING 1,2-DIBROMO-2,4-DICYANOBUTANE (DBDCB) AND AT LEAST ONE ORGANIC ACID AND/OR THE DERIVATIVES THEREOF” (priority 2015, published 2019).

Legend:
Type in all cases: cell-based
[1] = test system: Bacteria: Escherichia coil, Pseudomonas aeruginosa, Staphylococcus aureus, Pseudomonas putida, Enterobacter gergoviae; test: Microbiological load test, preservation of a dishwashing liquid: bacteria; conditions: B = bacteria, 1 week after pathogen addition, biocide added [wt %]: A DBDCB 0.05, B salicylic acid 0.02, C DBDCB 0.02 and salicylic acid 0.016
From the text: (§1) The preserving effect of an inventive composition comprising DBDCB and Salix alba extract in a dishwashing liquid was investigated using a microbiological load test. The microbiological load test examines the susceptibility of water-based products to microbial attack and the effect of preservatives. To this end, the preservatives are incorporated in defined concentrations into the water-based systems. […] With knowledge of the microorganism populations prevalent in detergents of the type described here, the experiment employed a mixture of the following microorganism species for testing: Bacteria: Escherichia coil, Pseudomonas aeruginosa, Staphylococcus aureus, Pseudomonas putida, Enterobacter gergoviae […] The activity is deemed poor when, compared to the unpreserved sample, no reduction or only a minor reduction of the microbe level is observed (residual level of at least 10^5 bacteria/10^4 mold cells/yeast cells per g) (score of 0=poor). The following compositions were used in the experiments depicted in table 10: • A: DBDCB • B: […]

Bacillus subtilis = test: Minimum inhibitory concentration and synergistic index (Kull); conditions: Table 8
From the text: (§2) [formula] • where: • Qa=the amount of component A in the active substance mixture which achieves the desired effect, i.e. no microbial growth, • QA=the amount of component A which, when used on its own, suppresses the growth of the microorganisms, • Qb=the amount of component B in the active substance mixture which achieves the desired effect, i.e. no microbial growth, • and • QB=the amount of component B which, when used on its own, suppresses the growth of the microorganisms.
(§3) A synergistic index obtained according to the above formula of SI<1 indicates a synergistic effect for the active substance mixture.
(§4) Using various test pathogens, the minimum inhibitory concentration was determined and, on the basis thereof with the aid of the formula by F. C. Kull et al., the synergistic effects of the listed compositions according to the invention were calculated.

Alternaria alternata = test: as above; conditions: for QA: amount of DBDCB used on its own that suppresses growth
From the text: as §2, §3, §4

Geotrichum candidum = test: as above; conditions: Table 3
From the text: as §2, §3, §4

Staphylococcus aureus = test: as above; conditions: Table 1
From the text: as §2, §3, §4

Pseudomonas aeruginosa = test: as above; conditions: for QA: amount of DBDCB used on its own that suppresses growth
From the text: as §2, §3, §4

Aspergillus brasiliensis = test: as above; conditions: Table 9
From the text: as §2, §3, §4

[2] = test system: Yeasts: Candida albicans and Rhodotorula rubra; test: Microbiological load test, preservation of a dishwashing liquid: yeasts; conditions: Y = yeasts, 1 week after pathogen addition, biocide added [wt %]: A DBDCB 0.05, B salicylic acid 0.02, C DBDCB 0.02 and salicylic acid 0.016
From the text: as §1, with “Yeasts: Candida albicans and Rhodotorula rubra.” for “Bacteria: Escherichia coil, Pseudomonas aeruginosa, Staphylococcus aureus, Pseudomonas putida, Enterobacter gergoviae”

[3] = test system: Molds: Acremonium strictum, Aspergillus niger and Geotrichum candidum; test: Microbiological load test, preservation of a dishwashing liquid: molds; conditions: M = molds, 1 week after pathogen addition, biocide added [wt %]: A DBDCB 0.05, B salicylic acid 0.02, C DBDCB 0.02 and salicylic acid 0.016
From the text: as §1, with “Molds: Acremonium strictum, Aspergillus niger and Geotrichum candidum.” for “Bacteria: Escherichia coil, Pseudomonas aeruginosa, Staphylococcus aureus, Pseudomonas putida, Enterobacter gergoviae”

[4] = amount of DBDCB used on its own that suppresses growth
[5] = amount of benzoic acid used on its own that suppresses growth
[6] = amount of citric acid used on its own that suppresses growth

Structure (SMILES): N#CCCC(Br)(C#N)CBr (stereo not drawn) [DBDCB, 1,2-dibromo-2,4-dicyanobutane]
- Activity of the biocides in a dishwashing liquid, bacteria, Week 1 ([1]; week 1): 1 (1 = fair activity)
- Activity of the biocides in a dishwashing liquid, bacteria, Week 2 ([1]; week 2): 0 (0 = poor activity)
- Activity of the biocides in a dishwashing liquid, bacteria, Week 3 ([1]; week 3): 0 (0 = poor activity)
- Activity of the biocides in a dishwashing liquid, bacteria, Week 4 ([1]; week 4): 0 (0 = poor activity)
- Activity of the biocides in a dishwashing liquid, bacteria, Week 5 ([1]; week 5): 0 (0 = poor activity)
- Activity of the biocides in a dishwashing liquid, bacteria, Week 6 ([1]; week 6): 0 (0 = poor activity)
- QA (Bacillus subtilis; [4]): 25 ppm
- QA (Alternaria alternata; Table 2): 25 ppm
- QA (Alternaria alternata; Table 5): 25 ppm
- QA (Alternaria alternata; Table 7): 25 ppm
- QA (Geotrichum candidum; [4]): 100 ppm
- QA (Staphylococcus aureus; [4]): 50 ppm
- QA (Pseudomonas aeruginosa; Table 4): 500 ppm
- QA (Pseudomonas aeruginosa; Table 6): 250 ppm
- QA (Aspergillus brasiliensis; [4]): 250 ppm
- Activity of the biocides in a dishwashing liquid, yeasts, Week 1 ([2]; week 1): 3 (3 = very good activity)
- Activity of the biocides in a dishwashing liquid, yeasts, Week 2 ([2]; week 2): 3 (3 = very good activity)
- Activity of the biocides in a dishwashing liquid, yeasts, Week 3 ([2]; week 3): 0 (0 = poor activity)
- Activity of the biocides in a dishwashing liquid, yeasts, Week 4 ([2]; week 4): 0 (0 = poor activity)
- Activity of the biocides in a dishwashing liquid, yeasts, Week 5 ([2]; week 5): 0 (0 = poor activity)
- Activity of the biocides in a dishwashing liquid, yeasts, Week 6 ([2]; week 6): 0 (0 = poor activity)
- Activity of the biocides in a dishwashing liquid, molds, Week 1 ([3]; week 1): 3 (3 = very good activity)
- Activity of the biocides in a dishwashing liquid, molds, Week 2 ([3]; week 2): 3 (3 = very good activity)
- Activity of the biocides in a dishwashing liquid, molds, Week 3 ([3]; week 3): 0 (0 = poor activity)
- Activity of the biocides in a dishwashing liquid, molds, Week 4 ([3]; week 4): 0 (0 = poor activity)
- Activity of the biocides in a dishwashing liquid, molds, Week 5 ([3]; week 5): 0 (0 = poor activity)
- Activity of the biocides in a dishwashing liquid, molds, Week 6 ([3]; week 6): 0 (0 = poor activity)

Structure (SMILES): O=C(O)c1ccccc1 [benzoic acid]
- QB (Bacillus subtilis; [5]): 3000 ppm
- QB (Aspergillus brasiliensis; [5]): 1000 ppm

Structure (SMILES): O=C(O)CC(O)(CC(=O)O)C(=O)O [citric acid]
- QB (Alternaria alternata; amount of citric acid used on its own that suppresses growth, Table 2): 3001 ppm
- QB (Geotrichum candidum; [6]): 3001 ppm
- QB (Staphylococcus aureus; [6]): 3001 ppm

Structure (SMILES): CC(O)C(=O)O (stereo not drawn) [lactic acid]
- QB (Alternaria alternata; amount of lactic acid used on its own that suppresses growth, Table 5): 3001 ppm
- QB (Pseudomonas aeruginosa; amount of lactic acid used on its own that suppresses growth, Table 4): 3001 ppm

Structure (SMILES): O=C(O)c1ccccc1O [salicylic acid]
- QB (Alternaria alternata; amount of salicylic acid used on its own that suppresses growth, Table 7): 500 ppm
- QB (Pseudomonas aeruginosa; amount of salicylic acid used on its own that suppresses growth, Table 6): 3001 ppm
